Results taken from article PMC11882969 (Nature Communications, 2025).
Where “and” joins values, the source holds several entries; their conditions need not be identical. Equal values may be shown once. Read-outs that look alike come from different tables or passages of the source.

Biological target: hCB2 (Homo sapiens, UniProt P34972)
Assay: bioSensAll ebBRET signaling profiling, hCB2
Assay type: cell-based
Design: host or cells: HEK293SL cells, transient PEI transfection
Details: for RE, relative efficacy: vs CP-55,940; for G13 hCB2 / G15 hCB2 / Gq hCB2 / Gs hCB2: raw signal; for EC50: read-out: EC50 [95% CI]; for Emax: normalized to CP-55,940
[1] = Log [Compound] (M) not printed (line after -13)

Chain of hCB2 (P34972 whole entry): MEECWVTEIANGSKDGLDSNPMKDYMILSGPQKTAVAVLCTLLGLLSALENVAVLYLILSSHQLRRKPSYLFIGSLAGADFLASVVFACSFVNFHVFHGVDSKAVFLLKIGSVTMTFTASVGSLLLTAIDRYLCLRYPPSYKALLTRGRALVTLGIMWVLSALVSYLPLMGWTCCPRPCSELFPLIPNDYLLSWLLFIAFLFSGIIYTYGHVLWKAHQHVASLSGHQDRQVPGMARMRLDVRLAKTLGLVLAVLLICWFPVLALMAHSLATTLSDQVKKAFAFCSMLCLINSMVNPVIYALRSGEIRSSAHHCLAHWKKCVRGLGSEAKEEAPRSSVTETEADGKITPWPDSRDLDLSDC

## COC(=O)C(C)(NC(=O)c1cc(C)n(-c2cccc(C(F)(F)F)c2)n1)c1cccs1 (stereo not drawn) [‘4042]
Log [Compound] (M) -4.22186
  Barr2+GRK2 hCB2: 36.6847 and 35.0372
  Gi1 hCB2: 75.671 and 56.3726
  Gi2 hCB2: 69.4439
  GoB hCB2: 52.0294 and 57.6529
  Gz hCB2: 65.903
  G13 hCB2: 669
  G15 hCB2: 923
  Gq hCB2: 1840
  Gs hCB2: 9076
Log [Compound] (M) -4.63927
  Barr2+GRK2 hCB2: 30.1112 and 31.9388
  Gi1 hCB2: 84.2769 and 74.9725
  Gi2 hCB2: 71.4813
  GoB hCB2: 57.2898 and 66.4321
  Gz hCB2: 53.7774
  G13 hCB2: 511
  G15 hCB2: 896
  Gq hCB2: 1838
  Gs hCB2: 9146
Log [Compound] (M) -5.05788
  Barr2+GRK2 hCB2: 34.1076 and 21.894
  Gi1 hCB2: 83.7031 and 72.7366
  Gi2 hCB2: 65.5506
  GoB hCB2: 61.864 and 59.6527
  Gz hCB2: 52.6347
  G13 hCB2: 372
  G15 hCB2: 871
  Gq hCB2: 1851
  Gs hCB2: 9765
Log [Compound] (M) -5.47381
  Barr2+GRK2 hCB2: 32.3148 and 21.944
  Gi1 hCB2: 87.9518 and 88.1124
  Gi2 hCB2: 70.9363
  GoB hCB2: 59.0585 and 62.0173
  Gz hCB2: 46.8061
  G13 hCB2: 454
  G15 hCB2: 873
  Gq hCB2: 1786
  Gs hCB2: 9415
Log [Compound] (M) -5.89285
  Barr2+GRK2 hCB2: 35.0413 and 26.4416
  Gi1 hCB2: 81.7804 and 90.251
  Gi2 hCB2: 70.7805
  GoB hCB2: 65.2185 and 62.9481
  Gz hCB2: 53.1772
  G13 hCB2: 417
  G15 hCB2: 919
  Gq hCB2: 1814
  Gs hCB2: 9299
Log [Compound] (M) -6.31878
  Barr2+GRK2 hCB2: 26.1148 and 22.8935
  Gi1 hCB2: 87.5021 and 87.0754
  Gi2 hCB2: 73.3371
  GoB hCB2: 60.7357 and 59.0239
  Gz hCB2: 50.6781
  G13 hCB2: 379
  G15 hCB2: 911
  Gq hCB2: 1840
  Gs hCB2: 9425
Log [Compound] (M) -6.72585
  Barr2+GRK2 hCB2: 32.0907 and 32.9383
  Gi1 hCB2: 83.1759 and 83.592
  Gi2 hCB2: 72.2081
  GoB hCB2: 57.8234 and 61.5268
  Gz hCB2: 54.4186
  G13 hCB2: 366
  G15 hCB2: 869
  Gq hCB2: 1780
  Gs hCB2: 9320
Log [Compound] (M) -7.14267
  Barr2+GRK2 hCB2: 30.5594 and 25.1923
  Gi1 hCB2: 86.1686 and 79.3795
  Gi2 hCB2: 59.0489
  GoB hCB2: 60.3698 and 62.0676
  Gz hCB2: 81.8754 and 46.0416
  G13 hCB2: 378
  G15 hCB2: 865
  Gq hCB2: 1798
  Gs hCB2: 9628
Log [Compound] (M) -7.55284
  Barr2+GRK2 hCB2: 24.7329 and 21.1444
  Gi1 hCB2: 76.7565 and 80.3516
  Gi2 hCB2: 59.4123
  GoB hCB2: 49.2391 and 57.2756
  Gz hCB2: 76.5196 and 38.421
  G13 hCB2: 351
  G15 hCB2: 908
  Gq hCB2: 1838
  Gs hCB2: 9429
Log [Compound] (M) -8
  Barr2+GRK2 hCB2: 20.8112 and 19.8451
  Gi1 hCB2: 58.7695 and 64.9921
  Gi2 hCB2: 62.9552
  GoB hCB2: 43.3382 and 49.9051
  G13 hCB2: 336
  G15 hCB2: 870
  Gq hCB2: 1691
  Gs hCB2: 9233
Log [Compound] (M) -8.22186
  Barr2+GRK2 hCB2: 15.2835 and 10.4
  Gi1 hCB2: 52.319 and 51.5606
  Gi2 hCB2: 51.7297
  GoB hCB2: 36.4463 and 41.3775
  Gz hCB2: 67.5634 and 41.7257
  G13 hCB2: 337
  G15 hCB2: 953
  Gq hCB2: 1914
  Gs hCB2: 10090
Log [Compound] (M) -8.39794
  Barr2+GRK2 hCB2: 10.0546 and 6.052
  Gi1 hCB2: 41.3253 and 50.1024
  Gi2 hCB2: 43.6058
  GoB hCB2: 31.1707 and 34.2586
  G13 hCB2: 386
  G15 hCB2: 901
  Gq hCB2: 1867
  Gs hCB2: 9624
Log [Compound] (M) -8.68787
  Barr2+GRK2 hCB2: 5.6847 and 8.001
  Gi1 hCB2: 42.5968 and 33.949
  Gi2 hCB2: 35.8583
  G13 hCB2: 351
  G15 hCB2: 876
  Gq hCB2: 1937
  Gs hCB2: 9194
Log [Compound] (M) -9.15521
  Gi2 hCB2: 25.8008
  G13 hCB2: 367
  G15 hCB2: 910
  Gq hCB2: 1811
  Gs hCB2: 9196
Log [Compound] (M) -9.61989
  Gi2 hCB2: -4.618
  G13 hCB2: 345
  G15 hCB2: 880
  Gq hCB2: 1785
  Gs hCB2: 9153
Log [Compound] (M) -10.0969
  Gi2 hCB2: -5.163
  G13 hCB2: 341
  G15 hCB2: 856
  Gq hCB2: 1790
  Gs hCB2: 9401
Log [Compound] (M) -10.5529
  Gi2 hCB2: -5.566
  G13 hCB2: 309
  G15 hCB2: 917
  Gq hCB2: 1878
  Gs hCB2: 9283
Log [Compound] (M) -11.0177
  Gi2 hCB2: -11.8727
  G13 hCB2: 377
  G15 hCB2: 837
  Gq hCB2: 1802
  Gs hCB2: 9354
Log [Compound] (M) -11.4949
  Gi2 hCB2: -13.975
  G13 hCB2: 335
  G15 hCB2: 822
  Gq hCB2: 1866
  Gs hCB2: 8977
Log [Compound] (M) -11.9208
  Gi2 hCB2: -11.7429
  G13 hCB2: 361
  G15 hCB2: 904
  Gq hCB2: 1780
  Gs hCB2: 8976
Log [Compound] (M) -12.3979
  Gi2 hCB2: -12.3529
  G13 hCB2: 355
  G15 hCB2: 851
  Gq hCB2: 1758
  Gs hCB2: 8977
Log [Compound] (M) -12.8861
  Gi2 hCB2: -13.7415
  G13 hCB2: 299
  G15 hCB2: 809
  Gq hCB2: 1793
  Gs hCB2: 9246
Log [Compound] (M) -13
  Gi2 hCB2: -11.7689
  G13 hCB2: 267 and 381
  G15 hCB2: 851 and 879
  Gq hCB2: 1807 and 1732
  Gs hCB2: 9386 and 9439
[1]
  Barr2+GRK2 hCB2: 1.105
  Gi1 hCB2: -2.635
  GoB hCB2: -0.7449
  Gz hCB2: 1.526
hCB2 Barr2 + GRK2
  pEC50 [95% CI]: 8.26 [8.1 – 8.5]
  EC50: 5.5 nM
hCB2 Gi1
  pEC50 [95% CI]: 8.58 [8.5 – 8.7]
  RE, relative efficacy: 0.63
  EC50: 2.7 nM
hCB2 Gi2
  pEC50 [95% CI]: 8.90 [8.8 – 9.0]
  RE, relative efficacy: 0.59
  EC50: 1.3 nM
hCB2 GoB
  pEC50 [95% CI]: 8.60 [8.5 – 8.7]
  RE, relative efficacy: 0.47
  EC50: 2.5 nM
hCB2 Gz
  pEC50 [95% CI]: 8.87 [8.5 – 9.3]
  RE, relative efficacy: 0.38
hCB2 ßarr2+GRK2
  RE, relative efficacy: 0.82
read-out: Emax [95% CI], hCB2 Barr2 + GRK2
  Emax: 33%
read-out: Emax [95% CI], hCB2 Gi1
  Emax: 82%
read-out: Emax [95% CI], hCB2 Gi2
  Emax: 70%
read-out: Emax [95% CI], hCB2 GoB
  Emax: 61%
read-out: Emax [95% CI], hCB2 Gz
  Emax: 56%
